From publication PMC7094550 (Experimental Parasitology, 2017) come the findings set out here.

The target in this test is T1, Leishmania donovani HMG-CoA reductase (LdHMGR) (Leishmania donovani, UniProt A0A3S7X3U0).
T1 sequence (A0A3S7X3U0 1-434): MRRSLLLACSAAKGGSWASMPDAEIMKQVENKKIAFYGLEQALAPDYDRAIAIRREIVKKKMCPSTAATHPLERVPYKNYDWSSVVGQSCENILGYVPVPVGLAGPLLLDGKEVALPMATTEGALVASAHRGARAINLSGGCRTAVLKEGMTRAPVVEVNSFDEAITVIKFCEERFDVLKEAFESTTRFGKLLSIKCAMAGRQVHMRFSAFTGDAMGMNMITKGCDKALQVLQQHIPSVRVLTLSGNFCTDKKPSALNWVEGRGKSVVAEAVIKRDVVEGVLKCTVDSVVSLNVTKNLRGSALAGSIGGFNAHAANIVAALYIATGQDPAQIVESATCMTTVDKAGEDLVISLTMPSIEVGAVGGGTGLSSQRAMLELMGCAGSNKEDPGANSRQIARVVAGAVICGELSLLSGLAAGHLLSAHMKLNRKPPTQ
The test can be described thus: NADPH oxidation assay at […] nm with purified recombinant enzyme. It is filed as biochemical.

The structures appear in SMILES notation.

On to `CC(C)c1c(C(=O)Nc2ccccc2)c(-c2ccccc2)c(-c2ccc(F)cc2)n1CC[C@@H](O)C[C@@H](O)CC(=O)O` [Atorvastatin], for which the half-maximal inhibitory concentration (IC50) came out at 300 nM.
